Measurements reported in PMC2864571 (2010).
Read-outs that look alike come from different tables or passages of the source.

Columns and labels:
[1] = test system: SK209-52 RNA (RNA, riboswitch, extra 5' G residues added for transcription (asterisks in Figure 1b)) GGUACCUGUCACAACGGCUUCCUGGCGUGACGAGGUGACCUCAGUGGAGCAA; experiment: in-line probing
[2] = test system: SAM-Chlorobi RNA (longest construct) (RNA, mRNA element) GGAUUUUCCGGCAUCCCCAUUACCUAUGGACACGGUGCCAAAAGCUCUCUUGCGGGAGUUGUCCCCGGAGCUUGCCGAAAGGUUUCCCGUGUCCCGUUUGUCCCUCCGCGACAUUCACCUUCACGAGAAAACCGCAUCGGCAAACCGCCGGACACCUGCCGUUCUUGUCGUUCGAUUAACAAAAAACCGAAAGGGAAACUA; experiment: in-line probing; settings: 1 mM tested; preliminary analysis
[3] = test system: SAM-Chlorobi RNA (third construct, shorter 3' end) (RNA, mRNA element) GGAUUUUCCGGCAUCCCCAUUACCUAUGGACACGGUGCCAAAAGCUCUCUUGCGGGAGUUGUCCCCGGAGCUUGCCGAAAGGUUUCC; experiment: in-line probing; settings: 1 mM tested; preliminary analysis
[4] = test system: SAM-Chlorobi RNA (second construct, shorter 3' end) (RNA, mRNA element) GGAUUUUCCGGCAUCCCCAUUACCUAUGGACACGGUGCCAAAAGCUCUCUUGCGGGAGUUGUCCCCGGAGCUUGCCGAAAGGUUUCCCGUGUCCCGUUUGUCCC; experiment: in-line probing; settings: 1 mM tested; preliminary analysis
[5] = test system: SAM-Chlorobi RNA (fourth construct, shortest 3' end) (RNA, mRNA element) GGAUUUUCCGGCAUCCCCAUUACCUAUGGACACGGUGCCAAAAGCUCUCUUGCGGGAGUU; experiment: in-line probing; settings: 1 mM tested; preliminary analysis
[6] = test system: pfl RNA (RNA, riboswitch) GGUAAAAUAAGAAAAUCAUGCAACUGGCGGAAAUGGAGUUCACCAUAGGGAGCAUGAUUAAUAUAAGAAUCGACCGCCUGGGUAAAUUAAUA; experiment: RNase T1 and V1 protection assay; settings: PRPP unstable; 1 mM in in-line probing list

`Nc1ncnc2c1ncn2[C@@H]1O[C@H](CSCC[C@H](N)C(=O)O)[C@@H](O)[C@H]1O` was tested, and the KD [1] was ~ 4.3 μM, the binding [2] was “no” and the binding [3] was “no”. For the same compound, the binding [4] was “no” and the binding [5] was “no”.

For `O=P(O)(O)OC[C@H]1O[C@H](OP(=O)(O)OP(=O)(O)O)[C@H](O)[C@@H]1O`, the binding [6] was “no”.

For `C[S+](CC[C@H](N)C(=O)O)C[C@H]1O[C@@H](n2cnc3c(N)ncnc32)[C@H](O)[C@@H]1O` (some centres unmarked), the KD ([1]; SAM samples contain some SAH from spontaneous demethylation, apparent) was ~ 8.6 μM, the binding [2] was “no” and the binding [3] was “no”. For the same compound, the binding [4] was “no” and the binding [5] was “no”.
